Test: Displacement of [3H]DTG from sigma opioid receptor of homogenized guinea pig whole brain

Row | Compound | IC50 [nM]
1 | COc1ccc(NC(N)=NC23CC4CC(CC(C4)C2)C3)cc1 | 10
2 | NC(=NC12CC3CC(CC(C3)C1)C2)Nc1cccc(I)c1 | 8
3 | COc1ccccc1N=C(N)NC12CC3CC(CC(C3)C1)C2 | 17
4 | COc1cccc(NC(N)=NC23CC4CC(CC(C4)C2)C3)c1 | 7
5 | Cc1cc(F)ccc1N=C(N)NC12CC3CC(CC(C3)C1)C2 | 3.2
6 | NC(=Nc1ccccc1I)NC12CC3CC(CC(C3)C1)C2 | 6.2
7 | COc1ccc(N=C(N)NC23CC4CC(CC(C4)C2)C3)c(C)c1 | 7
